Experimental data: PubChem BioAssay AID2060908 (Molecular Pharmacology Branch, DTP, NCI, 2025)

System: 186277-243-T-J2-PDC complex spheroids, viability
Test: Anticancer human tumor 186277-243-T-J2-PDC patient-derived colon adenocarcinoma cell line growth inhibition [RAS]
Settings: for viability, T/C: stronger effect = lower value; active = viability on the fitted dose curve at most 10% of control; inactive = the rest
How it was run: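 Tumour cells grown as complex spheroids with HUVEC endothelial cells and mesenchymal stem cells, treated with RAS pathway inhibitor combinations. Each agent spans half-log steps from near clinical Cmax, or 10 microM where Cmax is unknown.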

[1] = curve of first compound, second compound 0.000949 µM
[2] = curve of first compound, second compound 0.003 µM
[3] = curve of first compound, second compound 0.00949 µM
[4] = curve of first compound, second compound 0.03 µM
[5] = curve of first compound, second compound 0.0949 µM
[6] = curve of first compound, second compound 0.3 µM
[7] = second compound 0.000949 µM, first compound 0.0316 µM
[8] = second compound 0.000949 µM, first compound 0.1 µM
[9] = second compound 0.003 µM, first compound 0.0316 µM
[10] = second compound 0.003 µM, first compound 0.1 µM
[11] = second compound 0.00949 µM, first compound 0.0316 µM
[12] = second compound 0.00949 µM, first compound 0.1 µM
[13] = second compound 0.03 µM, first compound 0.0316 µM
[14] = second compound 0.03 µM, first compound 0.1 µM
[15] = second compound 0.0949 µM, first compound 0.0316 µM
[16] = second compound 0.0949 µM, first compound 0.1 µM
[17] = second compound 0.3 µM, first compound 0.0316 µM
[18] = second compound 0.3 µM, first compound 0.1 µM
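Note: spheroids exposed to compounds for 7 days before viability read.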

C[C@@H](NC(=O)c1ncnc(N)c1Cl)c1ncc(C(=O)Nc2cc(C(F)(F)F)c(Cl)cn2)s1 + CCn1c(-c2cccnc2C(C)OC)c2c3cc(ccc31)N1CCOC(CC(NC(=O)C(C(C)C)N(C)C(=O)C3(F)CCN(C(=O)C#CC(C)(C)N(C)C)CC3)C(=O)N3CCCC(N3)C(=O)OCC(C)(C)C2)C1
> 10000 nM: IC50 [1] | IC50 [2] | IC50 [3] | IC50 [4] | IC50 [5] | IC50 [6]
inactive: viability, T/C [7] 103% | viability, T/C [8] 85.1% | viability, T/C (second compound 0.000949 µM, first compound 0.316 µM) 87.7% | viability, T/C (second compound 0.000949 µM, first compound 1 µM) 96.6% | viability, T/C (second compound 0.000949 µM, first compound 3.16 µM) 104% | viability, T/C (second compound 0.000949 µM, first compound 10 µM) 80.5% | viability, T/C [9] 91.5% | viability, T/C [10] 84.5% | viability, T/C (second compound 0.003 µM, first compound 0.316 µM) 90.7% | viability, T/C (second compound 0.003 µM, first compound 1 µM) 90.1% | viability, T/C (second compound 0.003 µM, first compound 3.16 µM) 92.9% | viability, T/C (second compound 0.003 µM, first compound 10 µM) 95.1% | viability, T/C [11] 101% | viability, T/C [12] 95.3% | viability, T/C (second compound 0.00949 µM, first compound 0.316 µM) 93.1% | viability, T/C (second compound 0.00949 µM, first compound 1 µM) 105% | viability, T/C (second compound 0.00949 µM, first compound 3.16 µM) 94.6% | viability, T/C (second compound 0.00949 µM, first compound 10 µM) 82.6% | viability, T/C [13] 93.8% | viability, T/C [14] 95.4% | viability, T/C (second compound 0.03 µM, first compound 0.316 µM) 89.2% | viability, T/C (second compound 0.03 µM, first compound 1 µM) 85.8% | viability, T/C (second compound 0.03 µM, first compound 3.16 µM) 95.7% | viability, T/C (second compound 0.03 µM, first compound 10 µM) 72.5% | viability, T/C [15] 102% | viability, T/C [16] 116% | viability, T/C (second compound 0.0949 µM, first compound 0.316 µM) 104% | viability, T/C (second compound 0.0949 µM, first compound 1 µM) 113% | viability, T/C (second compound 0.0949 µM, first compound 3.16 µM) 110% | viability, T/C (second compound 0.0949 µM, first compound 10 µM) 76.3% | viability, T/C [17] 109% | viability, T/C [18] 120% | viability, T/C (second compound 0.3 µM, first compound 0.316 µM) 114% | viability, T/C (second compound 0.3 µM, first compound 1 µM) 112% | viability, T/C (second compound 0.3 µM, first compound 3.16 µM) 103% | viability, T/C (second compound 0.3 µM, first compound 10 µM) 57%

CC(=O)OC12COC1CC(O)C1(C)C(=O)C(O)C3=C(C)C(OC(=O)C(O)C(NC(=O)OC(C)(C)C)c4ccccc4)CC(O)(C(OC(=O)c4ccccc4)C21)C3(C)C (stereo not drawn)
< 31.6 nM: IC50 (curve of compound)
active: viability, T/C (compound 0.0316 µM) 8.57% [middle of 4 runs] | viability, T/C (compound 0.1 µM) 7.52% [middle of 4 runs] | viability, T/C (compound 0.316 µM) 7.03% [middle of 4 runs] | viability, T/C (compound 1 µM) 6.22% [middle of 4 runs] | viability, T/C (compound 3.16 µM) 5.95% [middle of 4 runs] | viability, T/C (compound 10 µM) 6.14% [middle of 4 runs]

CC(C)n1nc(-c2ccc3oc(N)nc3c2)c2c(N)ncnc21 + CCn1c(-c2cccnc2C(C)OC)c2c3cc(ccc31)N1CCOC(CC(NC(=O)C(C(C)C)N(C)C(=O)C3(F)CCN(C(=O)C#CC(C)(C)N(C)C)CC3)C(=O)N3CCCC(N3)C(=O)OCC(C)(C)C2)C1
60.3 nM: IC50 [1]
59 nM: IC50 [3]
24.9 nM: IC50 [6]
inactive: viability, T/C (second compound 0.000949 µM, first compound 0.000316 µM) 115% | viability, T/C (second compound 0.000949 µM, first compound 0.001 µM) 98.1% | viability, T/C (second compound 0.000949 µM, first compound 0.00316 µM) 98.5% | viability, T/C (second compound 0.000949 µM, first compound 0.01 µM) 100% | viability, T/C [7] 70.6% | viability, T/C [8] 33.7% | viability, T/C (second compound 0.003 µM, first compound 0.000316 µM) 88% | viability, T/C (second compound 0.003 µM, first compound 0.001 µM) 99% | viability, T/C (second compound 0.003 µM, first compound 0.00316 µM) 97.1% | viability, T/C (second compound 0.003 µM, first compound 0.01 µM) 92.2% | viability, T/C [9] 79.6% | viability, T/C [10] 40.5% | viability, T/C (second compound 0.00949 µM, first compound 0.000316 µM) 90.1% | viability, T/C (second compound 0.00949 µM, first compound 0.001 µM) 115% | viability, T/C (second compound 0.00949 µM, first compound 0.00316 µM) 93% | viability, T/C (second compound 0.00949 µM, first compound 0.01 µM) 94.1% | viability, T/C [11] 69.3% | viability, T/C [12] 33.6% | viability, T/C (second compound 0.03 µM, first compound 0.000316 µM) 106% | viability, T/C (second compound 0.03 µM, first compound 0.001 µM) 107% | viability, T/C (second compound 0.03 µM, first compound 0.00316 µM) 92.7% | viability, T/C (second compound 0.03 µM, first compound 0.01 µM) 90.2% | viability, T/C [13] 70.3% | viability, T/C [14] 31.2% | viability, T/C (second compound 0.0949 µM, first compound 0.000316 µM) 103% | viability, T/C (second compound 0.0949 µM, first compound 0.001 µM) 98.4% | viability, T/C (second compound 0.0949 µM, first compound 0.00316 µM) 105% | viability, T/C (second compound 0.0949 µM, first compound 0.01 µM) 95.4% | viability, T/C [15] 55.8% | viability, T/C [16] 31% | viability, T/C (second compound 0.3 µM, first compound 0.000316 µM) 101% | viability, T/C (second compound 0.3 µM, first compound 0.001 µM) 100% | viability, T/C (second compound 0.3 µM, first compound 0.00316 µM) 91.7% | viability, T/C (second compound 0.3 µM, first compound 0.01 µM) 72.5% | viability, T/C [17] 44.3% | viability, T/C [18] 21.3%
41.2 nM: IC50 [5]
76 nM: IC50 [2]
56.9 nM: IC50 [4]

CC(Nc1ccc2c(c1)OCCn1cc(N3C(=O)OCC3C(F)F)nc1-2)C(N)=O (stereo not drawn) + C#Cc1c(F)ccc2cc(O)cc(-c3ncc4c(N5CC6CCC(C5)N6)nc(OCC56CCCN5CC(F)C6)nc4c3F)c12
< 31.6 nM: IC50 (curve of first compound, second compound 0.0316 µM) | IC50 (curve of first compound, second compound 0.1 µM) | IC50 (curve of first compound, second compound 0.316 µM) | IC50 (curve of first compound, second compound 1 µM) | IC50 (curve of first compound, second compound 3.16 µM) | IC50 (curve of first compound, second compound 10 µM)
inactive: viability, T/C (second compound 0.0316 µM, first compound 0.0316 µM) 45.9% | viability, T/C (second compound 0.0316 µM, first compound 0.1 µM) 39.7% | viability, T/C (second compound 0.0316 µM, first compound 0.316 µM) 16.1% | viability, T/C (second compound 0.1 µM, first compound 0.0316 µM) 25.7% | viability, T/C (second compound 0.1 µM, first compound 0.1 µM) 16% | viability, T/C (second compound 0.316 µM, first compound 0.0316 µM) 18.2%
active: viability, T/C (second compound 0.0316 µM, first compound 1 µM) 7.04% | viability, T/C (second compound 0.0316 µM, first compound 3.16 µM) 3.9% | viability, T/C (second compound 0.0316 µM, first compound 10 µM) 3.75% | viability, T/C (second compound 0.1 µM, first compound 0.316 µM) 4.89% | viability, T/C (second compound 0.1 µM, first compound 1 µM) 2.76% | viability, T/C (second compound 0.1 µM, first compound 3.16 µM) 1.89% | viability, T/C (second compound 0.1 µM, first compound 10 µM) 2.88% | viability, T/C (second compound 0.316 µM, first compound 0.1 µM) 7.51% | viability, T/C (second compound 0.316 µM, first compound 0.316 µM) 2.9% | viability, T/C (second compound 0.316 µM, first compound 1 µM) 2.32% | viability, T/C (second compound 0.316 µM, first compound 3.16 µM) 1.28% | viability, T/C (second compound 0.316 µM, first compound 10 µM) 1.02% | viability, T/C (second compound 1 µM, first compound 0.0316 µM) 9.56% | viability, T/C (second compound 1 µM, first compound 0.1 µM) 5.56% | viability, T/C (second compound 1 µM, first compound 0.316 µM) 2.6% | viability, T/C (second compound 1 µM, first compound 1 µM) 1.95% | viability, T/C (second compound 1 µM, first compound 3.16 µM) 1.11% | viability, T/C (second compound 1 µM, first compound 10 µM) 1.01% | viability, T/C (second compound 3.16 µM, first compound 0.0316 µM) 8.36% | viability, T/C (second compound 3.16 µM, first compound 0.1 µM) 4.7% | viability, T/C (second compound 3.16 µM, first compound 0.316 µM) 2.45% | viability, T/C (second compound 3.16 µM, first compound 1 µM) 1.84% | viability, T/C (second compound 3.16 µM, first compound 3.16 µM) 3.64% | viability, T/C (second compound 3.16 µM, first compound 10 µM) 0.74% | viability, T/C (second compound 10 µM, first compound 0.0316 µM) 6.16% | viability, T/C (second compound 10 µM, first compound 0.1 µM) 2.81% | viability, T/C (second compound 10 µM, first compound 0.316 µM) 1.2% | viability, T/C (second compound 10 µM, first compound 1 µM) 0.66% | viability, T/C (second compound 10 µM, first compound 3.16 µM) 0.3% | viability, T/C (second compound 10 µM, first compound 10 µM) 0.16%
